Among the data in patent US20260008760A1, “DIPEPTIDYL PEPTIDASE 1 INHIBITORS AND USES THEREOF” (Insmed Incorporated, priority 2024, published 2026) are inhibition and IC50 values, retold here.

The target of one test is DPP1 in HL-60 cells (Homo sapiens, UniProt P53634). Nature of the test: DPP1 Cell Single-Point Percent Inhibition Testing. Type of test: cell-based. Further details: host or cells: HL-60 cells. The settings on record: final compound concentration 5 nM, n = 1. The method, boiled down:
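HL-60 cells in unsupplemented RPMI preincubated 60 min at 37 °C with test article (5 nM final, 0.1% DMSO), then given cell-permeable H-Gly-Phe-AFC (100 μM final) for 30 min. Fluorescence at 400/505 nm; percent inhibition versus vehicle after subtracting cell-free background and 10 μM brensocatib non-specific signal.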

For test [1], the target named is T1, human DPP1 enzyme (Homo sapiens, UniProt P53634). The experiment in a line: Human DPP1 Enzyme IC50 Assay. Type of test: biochemical. Further details: was first proteolytically processed into its mature form using recombinant human cathepsin L; purchased R&D Systems. The settings on record: activated recombinant human DPP1, 400 μM H-Gly-Arg-AMC, 10 minutes pre-incubation at 37° C., pH 6.0; average of n runs; read-out: Avg. IC50 (Human DPP1 enzyme IC50 value ranges). The method, boiled down: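 IC50 came from a four-parameter fit of activity relative to no-compound control, with fluorescence (Ex 350/Em 450 nm) read every 5 min for 90 min at 37 °C using 400 μM final H-Gly-Arg-AMC. Cathepsin L-matured human recombinant DPP1 was preincubated 10 min with compound at pH 6.0 (MES, DTT, 1% DMSO).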
Target sequence in this assay (P53634 25-134 limits assumed): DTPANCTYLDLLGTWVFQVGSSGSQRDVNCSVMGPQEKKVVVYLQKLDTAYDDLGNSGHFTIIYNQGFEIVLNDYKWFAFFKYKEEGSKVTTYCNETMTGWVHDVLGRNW
Target sequence in this assay (P53634 231-394 limits assumed): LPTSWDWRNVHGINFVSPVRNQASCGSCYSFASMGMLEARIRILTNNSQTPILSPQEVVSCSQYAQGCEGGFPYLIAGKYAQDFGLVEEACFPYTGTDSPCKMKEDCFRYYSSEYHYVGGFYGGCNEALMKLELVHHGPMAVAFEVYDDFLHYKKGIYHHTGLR
Target sequence in this assay (P53634 395-463 limits assumed): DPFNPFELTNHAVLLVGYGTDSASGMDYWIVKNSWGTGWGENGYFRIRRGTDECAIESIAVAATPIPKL

Test [2] deals with T1, human DPP1 enzyme. The experiment in a line: Human DPP1 Enzyme Single-Point Percent Inhibition Testing (HL-60 lysate). Type of test: biochemical. Further details: A crude lysate of HL-60 cells (ATCC; Manassas, VA) was used as a source of human DPP1 enzyme; host or cells: HL-60 cells (crude lysate). Particulars: final compound concentration of 10 nM, 400 μM H-Gly-Arg-AMC, n = 1. The method, boiled down: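 Enzyme source was HL-60 cell lysate in MES pH 6.0 buffer with NaCl and DTT, pre-incubated 10 min at 37° C with 10 nM compound (final, 1% DMSO). Cleavage of 400 μM H-Gly-Arg-AMC was followed at 350/450 nm over 90 min at 37° C, and percent inhibition was taken against vehicle wells.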
Target sequence in this assay (P53634 25-463): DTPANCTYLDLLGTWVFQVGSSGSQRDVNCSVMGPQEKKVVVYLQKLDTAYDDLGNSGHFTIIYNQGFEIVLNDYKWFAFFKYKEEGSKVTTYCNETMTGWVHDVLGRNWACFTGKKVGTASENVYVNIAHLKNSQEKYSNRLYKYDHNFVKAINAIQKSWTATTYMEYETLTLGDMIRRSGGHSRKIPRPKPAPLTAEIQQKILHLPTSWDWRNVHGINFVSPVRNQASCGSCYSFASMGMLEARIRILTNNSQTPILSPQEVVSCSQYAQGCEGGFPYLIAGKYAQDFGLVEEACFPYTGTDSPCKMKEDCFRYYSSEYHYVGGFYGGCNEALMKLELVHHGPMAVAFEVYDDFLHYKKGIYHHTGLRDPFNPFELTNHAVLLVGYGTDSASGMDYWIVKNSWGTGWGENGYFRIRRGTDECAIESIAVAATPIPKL

DPP1 in HL-60 cells, sequence (P53634 25-463): as above

As to `CN1CCCC2(C1)C(=O)N(C)c1ccc(-c3ccc(C[C@@H](C#N)NC(=O)[C@@H]4CNCCCO4)cc3)cc12` (stereo partly drawn) [Compound 18, (2S)—N-[(1S)-1-cyano-2-(4-{1,1′-dimethyl-2-oxospiro[indole-3,3′-piperidin]-5-yl}phenyl)ethyl]-1,4-oxazepane-2-carboxamide], at DPP1 in HL-60 cells, the inhibition at 0.005 µM was not above 76.5%. The half-maximal inhibitory concentration (IC50) at human DPP1 enzyme [1] was more than 0.015 µM. At human DPP1 enzyme [2], the inhibition at 0.01 µM is not above 40%.

`N#C[C@H](Cc1ccc(-c2cnc3c(n2)CCCC3)cc1)NC(=O)[C@@H]1CNCCCO1` [Compound A11, (2S)—N-[(1S)-1-cyano-2-[4-(5,6,7,8-tetrahydroquinoxalin-2-yl)phenyl]ethyl]-1,4-oxazepane-2-carboxamide] yielded an inhibition at 0.005 µM on DPP1 in HL-60 cells not above 76.5%. For the same molecule, the IC50 on human DPP1 enzyme [1] was more than 0.015 µM. This molecule came in with an inhibition at 0.01 µM against human DPP1 enzyme [2] not above 40%.
